23 compounds from ChEMBL document CHEMBL1146018, “The design and synthesis of a tricyclic single-nitrogen scaffold that serves as a 5-HT2C receptor agonist” (Bioorg Med Chem Lett, 2006) can be followed below.

Molecules are shown by their SMILES. Active and inactive are the calls of the source.

The target in data set [1] is T1, 5-hydroxytryptamine receptor 2C (Homo sapiens, UniProt P28335).
T1 sequence (P28335 whole entry): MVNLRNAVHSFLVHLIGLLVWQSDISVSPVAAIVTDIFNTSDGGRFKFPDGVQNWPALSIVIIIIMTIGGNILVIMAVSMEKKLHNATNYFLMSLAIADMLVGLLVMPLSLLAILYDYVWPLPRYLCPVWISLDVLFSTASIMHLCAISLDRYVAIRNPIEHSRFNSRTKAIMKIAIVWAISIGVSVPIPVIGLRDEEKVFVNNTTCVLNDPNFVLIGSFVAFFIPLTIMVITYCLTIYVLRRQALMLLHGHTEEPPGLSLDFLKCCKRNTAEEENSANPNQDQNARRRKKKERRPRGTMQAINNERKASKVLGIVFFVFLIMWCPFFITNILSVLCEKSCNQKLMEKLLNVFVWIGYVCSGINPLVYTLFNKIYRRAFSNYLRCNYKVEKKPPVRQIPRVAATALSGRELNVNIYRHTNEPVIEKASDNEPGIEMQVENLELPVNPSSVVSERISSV
The experiment in a line: Binding affinity to 5HT2C.

The target in data set [2] is Serotonin receptor (2b and 2c) (Homo sapiens) (UniProt P41595+P28335). In words: Selectivity for 5HT2C over 5HT2B. In kind it is protein assay.
Data set [3] concerns the target Serotonin 2 receptors; 5-HT2a & 5-HT2c (Homo sapiens) (UniProt P28223+P28335). In words: Selectivity for 5HT2C over 5HT2A. In kind it is protein assay.
Data set [4] deals with T1, 5-hydroxytryptamine receptor 2C. The experiment in a line: […] of 5HT2C assessed as intracellular calcium concentration. Format: functional, cell-based. Background: Calcium assays in cells follow changes in intracellular calcium, usually with a dye or a luminescent sensor.
Data set [5] in a line: Clearance in rat at 1.2 mg/kg, iv. In kind it is ADME, organism-based. Further details: dose 1.2 mg/kg, route intravenous. The conditions noted are these: in vivo.
Data set [6] is described as follows: Half life in rat at 1.2 mg/kg, iv. In kind it is ADME, organism-based. Details: dose 1.2 mg/kg, route intravenous. The conditions noted are these: in vivo.
A short description of data set [7]: Oral bioavailability in rat at 10.6 mg/kg, po. Format: ADME, organism-based. The conditions noted are these: in vivo.
Data set [8] is described as follows: Clearance in dog at 1.0 mg/kg, iv. Further details: dose 1 mg/kg, route intravenous. In kind it is ADME, organism-based, Canis lupus familiaris. Particulars: in vivo.
Data set [9] concerns Rattus norvegicus. In words: Reduction of food intake in rat at 10 mg/kg, ip after 4 hrs. Format: functional, organism-based. Details: dose 10 mg/kg.
Data set [10] relates to Rattus norvegicus. The experiment in a line: Reduction of food intake in ip dosed rat. In kind it is functional, organism-based.
A short description of data set [11]: Half life in dog at 1.0 mg/kg, iv. Further details: dose 1 mg/kg, route intravenous. Particulars: in vivo. Format: ADME, organism-based, Canis lupus familiaris.
Data set [12] is described as follows: Ratio of drug level in brain against plasma measured as AUC cortex/AUC plasma at 1.2 mg/kg, iv. In kind it is ADME, organism-based. Further details: dose 1.2 mg/kg, route intravenous. The conditions noted are these: rat, read-out: BPR.
A short description of data set [13]: Oral bioavailability in dog at 10.6 mg/kg, po. Format: ADME, organism-based, Canis lupus familiaris. Particulars: in vivo.
Data set [14] deals with Rattus norvegicus. In words: Reduction of food intake in rat at 20 mg/kg, ip after 24 hrs. Format: functional, organism-based. Details: dose 20 mg/kg.

Chain of Serotonin 2 receptors; 5-HT2a & 5-HT2c (Homo sapiens) (P28223 whole entry, looked up, one chain of several): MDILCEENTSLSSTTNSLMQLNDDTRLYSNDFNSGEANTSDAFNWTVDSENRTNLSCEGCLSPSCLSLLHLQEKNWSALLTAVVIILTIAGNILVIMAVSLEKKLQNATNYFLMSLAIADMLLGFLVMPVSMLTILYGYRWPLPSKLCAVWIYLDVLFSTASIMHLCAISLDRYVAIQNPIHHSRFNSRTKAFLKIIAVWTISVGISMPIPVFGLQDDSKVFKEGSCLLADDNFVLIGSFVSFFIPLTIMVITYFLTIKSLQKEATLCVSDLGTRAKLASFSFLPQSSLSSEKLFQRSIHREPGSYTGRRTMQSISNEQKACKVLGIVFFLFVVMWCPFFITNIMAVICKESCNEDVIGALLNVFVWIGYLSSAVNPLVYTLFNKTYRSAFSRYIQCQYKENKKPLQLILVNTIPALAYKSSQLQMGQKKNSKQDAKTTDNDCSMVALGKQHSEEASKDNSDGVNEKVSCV

`CC1c2cc(F)ccc2[C@H]2CNC[C@@H]12` (mixture of isomers) returned a Ki in [1] greater than 10 µM.

Consider `Cc1cc2c(cc1Cl)[C@H]1CNC[C@H]1C2C` (mixture of isomers), for which the inhibition constant (Ki) in [1] worked out at 0.465 µM.

In turn, `CC1c2ccc(F)cc2[C@H]2CNC[C@@H]12` (mixture of isomers) returned a Ki in data set [1] of 3.01 µM.

Compound `Cc1ccc2c(c1)C(C)[C@@H]1CNC[C@H]21` (mixture of isomers) returned a Ki in data set [1] of 1.7 µM.

On to `C[C@H]1c2c(ccc(Cl)c2Cl)[C@H]2CNC[C@H]21`, for which the Selectivity ratio in data set [2] was determined as 73; in data set [3], 50. Also, in data set [1], the affinity corresponds to a Ki of 0.005 µM.

Consider `Cc1cc2c(cc1Cl)[C@H]1CNC[C@H]1[C@H]2C`, for which the Selectivity ratio was determined as 14 in data set [2] and 11 in data set [3]. Further, the affinity in [1], expressed as Ki, was 0.134 µM.

Take `Clc1ccc2c(c1)C[C@@H]1CNC[C@H]21`: the Selectivity ratio was determined as 19 in [2] and 14 in data set [3]. Besides, the EC50 in data set [4] was found to be 0.011 µM.

`Cc1cc2c(cc1Br)[C@H]1CNC[C@H]1C2C` (mixture of isomers) displayed a Ki in data set [1] of 0.207 µM.

As for `C[C@H]1c2cc(Cl)c(Cl)cc2[C@H]2CNC[C@H]21`, the Selectivity ratio in data set [2] turned out to be 32; in [3] it was 8. The compound further returned an inhibition constant Ki in data set [1] of 0.155 µM.

On to `CCOc1cc2c(cc1Cl)[C@H](C)[C@@H]1CNC[C@H]21`, for which the Selectivity ratio in data set [2] came out at 31; in data set [3], 9. For the same compound, the Ki in [1] is 0.231 µM.

In the case of `Cc1cccc2c1C(C)[C@@H]1CNC[C@H]21` (mixture of isomers), in data set [1], the inhibition constant Ki came out at 3.38 µM.

As for `COc1cc2c(cc1Cl)C(C)[C@@H]1CNC[C@H]21` (mixture of isomers), in data set [1], the Ki was found to be 0.53 µM.

In the case of `COc1cc2c(cc1Cl)[C@H](C)[C@@H]1CNC[C@H]21`, the clearance in [5] was determined as 1.86 L/h/kg; in data set [8], 2.34 L/h/kg. The half-life in data set [6] was 1.8 h; in data set [11], 3.5 h. The bioavailability is 40% in [7] and 80% in data set [13]. For the same compound, the outcome in the data set on Rattus norvegicus [9] and in the data set with Rattus norvegicus [14] was Active. The Activity entry in the data set with Rattus norvegicus [10] is “Dose-dependent effect”. The Selectivity ratio in data set [2] was found to be 235; in [3], 73. The Kp in data set [12] is 15. For the same compound, the EC50 in data set [4] turned out to be 0.006 µM. This compound showed a Ki in [1] of 0.014 µM.

On to `C[C@H]1c2cc(Cl)c(O)cc2[C@H]2CNC[C@H]21`, for which the values for the Selectivity ratio in data set [2] and in data set [3] were 63 and 27, respectively. The compound further registered a Ki in [1] of 0.027 µM.

As to `Cc1cccc2c1[C@H]1CNC[C@H]1C2C` (mixture of isomers), the affinity in [1] corresponds to a Ki of 1.85 µM.

`Cc1ccc2c(c1)[C@H]1CNC[C@H]1C2C` (mixture of isomers) displayed an inhibition constant (Ki) in [1] of 3.31 µM.

Consider `COc1cc2c(cc1Br)[C@H](C)[C@@H]1CNC[C@H]21`, for which the Selectivity ratio in [2] was 81; in data set [3] it was 12. Further, the Ki in [1] worked out at 0.027 µM.

On to `C[C@@H]1c2cc(Cl)c(Cl)cc2[C@H]2CNC[C@@H]12`, for which the Selectivity ratio was 3 in data set [2] and 2 in data set [3]. Moreover, the Ki in [1] is 1.14 µM.

Compound `Cc1cc2c(cc1Cl)C(C)[C@@H]1CNC[C@H]21` (mixture of isomers) came in with an inhibition constant (Ki) in data set [1] of 0.107 µM.

Turning to `C[C@H]1c2cc(Cl)ccc2[C@H]2CNC[C@H]21`, the results for the Selectivity ratio in [2] and in data set [3] were 132 and 56, respectively. Further, the half-maximal effective concentration (EC50) in data set [4] amounted to 0.054 µM. Also, the Ki in data set [1] was determined as 0.911 µM.

`CC1c2cc(Cl)c(Cl)cc2[C@H]2CNC[C@@H]12` (mixture of isomers) yielded an inhibition constant Ki in data set [1] of 0.103 µM.

As for `Cc1cc2c(cc1Br)C(C)[C@@H]1CNC[C@H]21` (mixture of isomers), in [1], the Ki turned out to be 0.463 µM.

With `Cc1cc2c(cc1Cl)[C@H](C)[C@@H]1CNC[C@H]21`, the values for the Selectivity ratio in [2] and in data set [3] were 32 and 8, respectively. In addition, the Ki in [1] was 0.155 µM.

A word on the Ki: it is the dissociation constant of the complex between target and ligand, obtained from inhibition or displacement. Usually EC50 stands for the concentration needed to bring the measured effect to its halfway point. Broadly, the clearance is a measure of how efficiently the substance is removed, as volume per time. The low end stands for inefficient removal, the high end for efficient removal. One may read the half-life as the time needed for the level to fall by half in the phase considered. Low values mean rapid decline, high ones slow decline. In general, bioavailability refers to the share of a dose that reaches the circulation, judged against a reference dose that is usually intravenous. A low value points to poor availability.
